In data set [1] the target is T1, A3G (Homo sapiens, UniProt Q9HC16).
T1 construct: polyhistidine (C); made in house; host or cells: Baculovirus-infected Sf9 insect cells
Put plainly: In vitro DNA deaminase activity of purified A3G. The data set is classed as biochemical. The settings on record: purified A3G treated at varying concentrations.

Data set [2] concerns the target T2, A3G:RNA complexes (Homo sapiens, UniProt Q9HC16).
T2 construct: polyhistidine (C); made in house; host or cells: Baculovirus-infected Sf9 insect cells
Put plainly: EMSA of A3G:RNA complexes assembled on radiolabeled RNA (disaggregation of HMM). The data set is classed as binding. The settings on record: range of concentrations. On the procedure: The Electrophoretic Gel Mobility Shift Assay (EMSA) provides a visual and quantitative measure of the efficiency of A3G-RNA complex formation. EMSA was used initially to determine the optimum buffer conditions, molar ratio of A3G to RNA as well as the temperature and the duration of the complex assembly reaction.
The four compounds depicted in FIG. 7 were evaluated for their ability to disaggregate A3G:RNA complexes by treating A3G:RNA complexes assembled on radiolabeled RNA with each chemistry over a range of concentrations and then evaluated for size reduction of HMM by EMSA.
On the technique in general: In EMSA bound probe runs differently from free probe, usually more slowly.

Data set [3] deals with pseudotyped HIV in TZM-bl cells. Description: Single round infectivity of pseudotyped HIV in wild type TZM-bl cells. The data set is classed as cell-based. The settings on record: viruses +/- Vif. The source says: (§1) Viral particles were harvested from media of producer cells, normalized based on p24 content and equal number of virus particles were used to infect wild type TZM-bl or TZM-bl-A3G cells. […] However, HIV replication and, consequently Tat expression, are anticipated to be inhibited if dissolution of HMM by A3G activators was able to stimulate host defense.

The target of data set [4] is T3, HMM A3G (A3G:RNA complexes assembled in cells) (Homo sapiens, UniProt Q9HC16).
T3 construct: expressed in transfected cells; host or cells: TZM-bl cells stably transfected with A3G cDNA (TZM-bl-A3G); The HMM fraction was isolated from cell extracts by size exclusion chromatography
Description: In vitro deaminase activity of HMM isolated from TZM-bl-A3G cells. The data set is classed as biochemical. The settings on record: 20 μM. On the procedure: Experiments were performed to directly test whether the compounds could activate antiviral activity from HMM in living cells. For this a cell line that expressed A3G as HMM was created. TZM-bl reporter cells were transfected with A3G cDNA and a cell line with stable expression of A3G was selected (TZM-bl-A3G). To verify HMM A3G, cell extracts were prepared from TZM-bl-A3G cells and fractionated by size exclusion chromatography. […] Isolated HMM had low levels of in vitro deaminase activity (4% dC to dU) that could be activated 10-fold by RNase digestion (FIG. 12, top panel). Treatment of HMM with 20 μM Clonidine and Altanserin activated A3G deaminase activity 6- and 8-fold respectively compared to untreated HMM (FIG. 12, bottom panel).

The subject of data set [5] is pseudotyped HIV in TZM-bl-A3G cells. Description: microbe, parasite or virus in culture. The data set is classed as cell-based.
Source text: as §1

The target in data set [6] is APOBEC3G (hA3G) (Homo sapiens, UniProt Q9HC16 Q9HC16:1-384). Description: EMSA; Kd stated for optimal AU-rich RNA with G or C every fourth nucleotide; 99 nt RNA selected for the assay. The note with it: tags: C-terminal polyhistidine tag. The procedure: Experiments were performed to determine what length and sequence of nonspecific RNA would yield the most efficient formation of A3G:RNA complexes. A3G was expressed using the Baculovirus system and purified by nickel affinity chromatography. RNAs varying in GC and AU content were synthesized chemically or transcribed in vitro in lengths varying from 10 to 99 nucleotides (nt). A3G:RNA complexes were assembled in vitro with these RNAs over a range of A3G concentrations and the yield of small and large complexes determined by electrophoretic mobility shift on native gels (EMSA). […] A 99 nt RNA was selected for the HTS assay. The RNA used for the following data had the sequence: […]

A value given as a limit tells only on which side of the number the result lay.

T3 sequence (Q9HC16 whole entry, one chain of several): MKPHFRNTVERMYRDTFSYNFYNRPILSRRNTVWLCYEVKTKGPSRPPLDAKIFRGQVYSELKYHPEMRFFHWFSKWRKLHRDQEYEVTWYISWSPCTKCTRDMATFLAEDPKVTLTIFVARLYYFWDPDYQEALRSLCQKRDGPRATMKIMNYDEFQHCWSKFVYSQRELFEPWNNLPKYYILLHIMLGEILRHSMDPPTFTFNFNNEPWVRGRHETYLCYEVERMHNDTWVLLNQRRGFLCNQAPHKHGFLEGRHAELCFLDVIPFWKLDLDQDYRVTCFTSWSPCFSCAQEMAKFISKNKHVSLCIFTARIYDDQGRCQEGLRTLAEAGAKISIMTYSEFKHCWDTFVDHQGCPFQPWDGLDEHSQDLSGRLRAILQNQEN
T1 sequence (Q9HC16 whole entry): as the sequence (Q9HC16 whole entry, one chain of several) above
T2 sequence (Q9HC16 whole entry, one chain of several): as above
Chain of APOBEC3G (hA3G) (Q9HC16 whole entry, one chain of several): as above

`Clc1cccc(Cl)c1N=C1NCCN1` [Clonidine]: in data set [1], the “inhibition of A3G deaminase activity” value is on record as “none of the hits inhibited A3G deaminase activity”. In addition, the “dissolution of A3G:RNA aggregates (HMM) by EMSA” value in data set [2] is “dose-dependent dissolution of A3G:RNA aggregates to faster migrating lower molecular mass (LMM) complexes”. The “antiviral activity in TZM-bl cells” value in data set [3] is given as “not in TZM-bl cells”. Further, the “activation of A3G deaminase activity compared to untreated HMM” value in data set [4] is given as 6 fold.

For `O=C(c1ccc(F)cc1)C1CCN(CCn2c(=S)[nH]c3ccccc3c2=O)CC1` [Altanserin], the “inhibition of A3G deaminase activity” value in data set [1] is “none of the hits inhibited A3G deaminase activity”. The inhibition (commonly the share of the control response that was lost under treatment) at 20 µM in data set [5] (Human immunodeficiency virus 1, read-out: inhibition of viral infectivity) is over 40%. In addition, the “antiviral activity in TZM-bl-A3G cells” value in data set [5] (viruses +/- Vif) is “induced antiviral activity in TZM-bl-A3G cells”. Further, the “dissolution of A3G:RNA aggregates (HMM) by EMSA” value in data set [2] is reported as “completely dissociate RNA from a portion of the A3G complexes”. Also, the “antiviral activity in TZM-bl cells” value in data set [3] is reported as “not in TZM-bl cells”. Besides, the “activation of A3G deaminase activity compared to untreated HMM” value in data set [4] is recorded as 8 fold.

B1: 99 nt nonspecific AU-rich RNA (ssRNA)
RNA: GGGAACAAAAGCUGGGUACCGGGCCCCCCCUCGAGGUCGAUGCAGACAUAUAUGAUACAAUUUGAUCAGUAUAUUAAAGAUAGUUAUGAUUUACAAGCU
On to B1, for which the affinity in data set [6], expressed as Kd, was 30 nM.

For the origin of these results see US20130123285A1, “Compositions and Methods for Targeting A3G:RNA Complexes” (UNIVERSITY OF ROCHESTER, priority 2010, published 2013).
